System: PDC KRAS tumor spheroids with HUVEC/MSC, viability
Assay: Anticancer human tumor 349418-098-R-PDC patient-derived lung adenocarcinoma cell line growth inhibition [KRAS2]
Details: for IC50: curve of first compound; for viability, T/C: stronger effect = lower value
Description: Multicellular complex tumor spheroid response to RAS pathway inhibitors in combination with a targeted agents in patient-derived cell lines with oncogenic KRAS variants from multiple cancer types
A high-throughput screen of multi-cell type tumor spheroids was designed to identify active combinations of targeted small molecules and KRAS pathway inhibitors. Complex spheroids include a stromal component modeled by human endothelial cells (HUVEC) and fibroblasts modeled by human mesenchymal stem cells (MSCs). The concentration ranges selected for each drug and investigational agent were based upon clinically achievable concentrations if the clinical Cmax of the agent was known.
Compounds. The drugs and investigational agents: BI-3406 (NSC825286), BAY-293 (NSC824723), batoprotafib (TNO155; NSC825523), sotorasib (AMG 510; NSC818433), MRTX1257 (NSC819558), elimusertib (BAY 1895344; NSC800525), molibresib (GSK525762; NSC774829), temuterkib (LY3214996; NSC803410), venetoclax (NSC766270), alisertib (NSC759677), olaparib (NSC753686), talazoparib (NSC767125), erdafitinib (NSC781556), ipatasertib (NSC767898), cabozantinib (NSC761068), nintedanib (NSC756659), abemaciclib (NSC768073), docetaxel (NSC628503), trametinib (NSC758246), and sapanisertib (NSC764658) were obtained from the National Cancer Institute (NCI) Developmental Therapeutics Program Chemical Repository. The FDA-approved anticancer drug set is available from the Developmental Therapeutics Program. […] The stock solutions were prepared in dimethyl sulfoxide (DMSO, Sigma-Aldrich, St. Louis, MO, cat. D2650) at 800-fold the tested concentration and stored at -70 degrees C prior to their use. All drugs and investigational agents were tested over a range starting from a high concentration at or near the clinical Cmax and decreasing in half-log increments. If the clinical Cmax for an agent had not been determined, the highest concentration tested was 10 microM.
Cell Culture. All cells were maintained in an incubator at 37 degrees C and 5% CO2 with 95% humidity. The PDC lines were cultured according to standard operating procedures established by the NCI PDMR (https://pdmr.cancer.gov/sops/default.htm). Briefly, all PDCs were thawed and cultured in Matrigel-coated flasks prepared with a working solution of 1X Ham's F-12 nutrient mix, without supplementation (Invitrogen, Waltham, MA, cat. 11765054), 100 U/mL penicillin-streptomycin (Invitrogen, cat. 15140122), and 2.5% Matrigel (Corning Inc., Corning, NY, cat. 354248) for the first three passages. All PDCs were cultured in complete DMEM/F-12 media containing advanced DMEM/F-12 (Invitrogen, cat. 12634028), 4.9% defined fetal bovine serum, heat inactivated (HyClone Laboratories Inc., Logan, UT, cat. SH30070.03HI), 389 ng/mL hydrocortisone (Sigma-Aldrich, cat. H4001), 9.7 ng/mL human EGF recombinant protein (Invitrogen, cat. PHG0313), 23.4 microg/mL adenine (Sigma-Aldrich, cat. A2786), 97.3 U/mL penicillin-streptomycin (Invitrogen, cat. 15140122), 1.9 mM L-glutamine (Invitrogen, cat. 25030081), and 9.7 microM Y-27632 dihydrochloride (Tocris Bioscience, Bristol, United Kingdom, cat. 1254). The PDCs were cultured in complete DMEM/F12 media without 9.7 microM Y-27632 dihydrochloride for at least two passages prior to the screen. The established cell line HOP-62 was cultured in RPMI 1640 medium, HEPES (Invitrogen, cat. 22400105) with 10% defined fetal bovine serum (HyClone Laboratories Inc., cat. SH30070.03) and 2 mM L-glutamine (Invitrogen, cat. 25030081). The pooled donor HUVEC were cultured in endothelial cell growth medium 2 (PromoCell, Heidelberg, Germany, cat. C-22011) and the hMSC were cultured in mesenchymal stem cell growth medium 2 (PromoCell, cat. C-28009). For all experiments, HUVEC and hMSC were used at passages </=5, while the malignant cell lines were used at passages </=15. […]

[1] = second compound 0.1 µM, first compound 0.0316 µM
[2] = second compound 0.1 µM, first compound 0.1 µM
[3] = second compound 0.316 µM, first compound 0.0316 µM
[4] = second compound 0.316 µM, first compound 0.1 µM
[5] = second compound 1 µM, first compound 0.0316 µM
[6] = second compound 1 µM, first compound 0.1 µM
[7] = second compound 3.16 µM, first compound 0.0316 µM
[8] = second compound 3.16 µM, first compound 0.1 µM
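Also: spheroids exposed to compounds for seven days before readout.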

COc1cc(Nc2ncc3c(n2)-c2ccc(Cl)cc2C(c2c(F)cccc2OC)=NC3)ccc1C(=O)O + COc1cc2nc(C)nc(NC(C)c3cc(N)cc(C(F)(F)F)c3)c2cc1OC1CCOC1
IC50 (second compound 0.1 µM): 47.4 nM
IC50 (second compound 0.316 µM): 36 nM
IC50 (second compound 1 µM): < 31.6 nM
IC50 (second compound 3.16 µM): < 31.6 nM
IC50 (second compound 10 µM): < 31.6 nM
viability, T/C [1]: 60%
viability, T/C [2]: 30.7%
viability, T/C (second compound 0.1 µM, first compound 0.316 µM): 31.8%
viability, T/C (second compound 0.1 µM, first compound 1 µM): 34.2%
viability, T/C (second compound 0.1 µM, first compound 3.16 µM): 23.3%
viability, T/C (second compound 0.1 µM, first compound 10 µM): 23.8%
viability, T/C [3]: 52.8%
viability, T/C [4]: 27.4%
viability, T/C (second compound 0.316 µM, first compound 0.316 µM): 30.8%
viability, T/C (second compound 0.316 µM, first compound 1 µM): 26.5%
viability, T/C (second compound 0.316 µM, first compound 3.16 µM): 25.4%
viability, T/C (second compound 0.316 µM, first compound 10 µM): 23.4%
viability, T/C [5]: 48.5%
viability, T/C [6]: 31.2%
viability, T/C (second compound 1 µM, first compound 0.316 µM): 36.2%
viability, T/C (second compound 1 µM, first compound 1 µM): 33%
viability, T/C (second compound 1 µM, first compound 3.16 µM): 28.3%
viability, T/C (second compound 1 µM, first compound 10 µM): 20.5%
viability, T/C [7]: 45.8%
viability, T/C [8]: 29.4%
viability, T/C (second compound 3.16 µM, first compound 0.316 µM): 28%
viability, T/C (second compound 3.16 µM, first compound 1 µM): 25.5%
viability, T/C (second compound 3.16 µM, first compound 3.16 µM): 18.4%
viability, T/C (second compound 3.16 µM, first compound 10 µM): 19.1%
viability, T/C (second compound 10 µM, first compound 0.0316 µM): 16.7%
viability, T/C (second compound 10 µM, first compound 0.1 µM): 22%
viability, T/C (second compound 10 µM, first compound 0.316 µM): 12.4%
viability, T/C (second compound 10 µM, first compound 1 µM): 9.24%
viability, T/C (second compound 10 µM, first compound 3.16 µM): 16.1%
viability, T/C (second compound 10 µM, first compound 10 µM): 6%

Cn1ncnc1[C@H]1c2n[nH]c(=O)c3cc(F)cc(c23)N[C@@H]1c1ccc(F)cc1 + C=CC(=O)N1CCN(c2nc(OCC3CCCN3C)nc3c2CCN(c2cccc4cccc(C)c24)C3)CC1CC#N
IC50 (second compound 0.0316 µM): > 100 nM
IC50 (second compound 0.1 µM): > 100 nM
IC50 (second compound 0.316 µM): > 100 nM
IC50 (second compound 1 µM): > 100 nM
IC50 (second compound 3.16 µM): < 0.316 nM
viability, T/C (second compound 0.0316 µM, first compound 0.000316 µM): 98.3%
viability, T/C (second compound 0.0316 µM, first compound 0.001 µM): 93.3%
viability, T/C (second compound 0.0316 µM, first compound 0.00316 µM): 84.3%
viability, T/C (second compound 0.0316 µM, first compound 0.01 µM): 85.5%
viability, T/C (second compound 0.0316 µM, first compound 0.0316 µM): 86.8%
viability, T/C (second compound 0.0316 µM, first compound 0.1 µM): 74.9%
viability, T/C (second compound 0.1 µM, first compound 0.000316 µM): 93.7%
viability, T/C (second compound 0.1 µM, first compound 0.001 µM): 96.9%
viability, T/C (second compound 0.1 µM, first compound 0.00316 µM): 83.6%
viability, T/C (second compound 0.1 µM, first compound 0.01 µM): 80.3%
viability, T/C [1]: 74.3%
viability, T/C [2]: 75.9%
viability, T/C (second compound 0.316 µM, first compound 0.000316 µM): 94.8%
viability, T/C (second compound 0.316 µM, first compound 0.001 µM): 97.9%
viability, T/C (second compound 0.316 µM, first compound 0.00316 µM): 85.7%
viability, T/C (second compound 0.316 µM, first compound 0.01 µM): 85.7%
viability, T/C [3]: 79.2%
viability, T/C [4]: 68%
viability, T/C (second compound 1 µM, first compound 0.000316 µM): 84.4%
viability, T/C (second compound 1 µM, first compound 0.001 µM): 82.8%
viability, T/C (second compound 1 µM, first compound 0.00316 µM): 68.6%
viability, T/C (second compound 1 µM, first compound 0.01 µM): 75.2%
viability, T/C [5]: 70.2%
viability, T/C [6]: 58.8%
viability, T/C (second compound 3.16 µM, first compound 0.000316 µM): 0.16%
viability, T/C (second compound 3.16 µM, first compound 0.001 µM): 0.14%
viability, T/C (second compound 3.16 µM, first compound 0.00316 µM): 2.18%
viability, T/C (second compound 3.16 µM, first compound 0.01 µM): 1.01%
viability, T/C [7]: 0.72%
viability, T/C [8]: 0.18%

From PubChem BioAssay AID1963866 (Molecular Pharmacology Branch, DTP, NCI, 2024)
